According to patent US20190359653A1, “SELECTIVE PEPTIDE INHIBITORS OF FRIZZLED” (Genentech, Inc., priority 2016, published 2019):
“Also recorded” adds a separate entry of the source.

What was measured:
[1] = tested on: Wnt3a-mediated β-catenin signaling in HEK293-TB cells; format: cell-based
[2] = target: T1, Wnt3a binding to FZD4 CRD (Homo sapiens, UniProt Q9ULV1); assay: ELISA of biotinylated Wnt3a binding to FZD CRD-Fc; settings: peptide 0-10 μM
T1 construct: hFZD4 CRD-Fc (cat no. 5847-FZ); purchased R&D systems 5847-FZ
T1 sequence (Q9ULV1 40-161 limits assumed): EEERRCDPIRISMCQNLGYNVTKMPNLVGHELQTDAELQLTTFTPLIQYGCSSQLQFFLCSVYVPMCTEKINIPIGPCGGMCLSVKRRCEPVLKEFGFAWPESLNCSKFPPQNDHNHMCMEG
Description: 384-well Maxisorp plates (cat. no. 464718; Thermo Scientific) were incubated with 30 μL of Neutravidin (cat. no. 31000, Thermo Scientific; 2 μg/mL in PBS) overnight at 4° C. Plates were then washed with PBST and blocked with PBS/1% BSA for 1 hour at RT and then washed with PBST prior to further processing. The binding assay was conducted in 96 well plates (cat no. 83007-374; VWR) which were blocked with PBS/1% BSA overnight at 4° C. hFZD4 CRD-Fc or hFZD7 CRD-Fc (63 ng/mL) were incubated with either Bio-Wnt3a (25 ng/mL) or Bio-Wnt5a (50 ng/mL) in the presence of 4-fold serial dilutions of the indicated peptide in PBS overnight at 4° C. All assays included hFZD9 CRD-mIgG2A protein as a negative control. hFZD7 CRD-His was suspended in 150 mM NaCl, 50 mM Tris-HCl at pH 7.5 and when used in assays an equal volume of the same buffer control was used. The binding assay mixtures were transferred to the Neutravidin coated plates and incubated for ˜1 h at RT. The wells were then washed with PBST, incubated with anti-hIgG1-HRP (1:10,000 suspended in PBS supplemented with 1% BSA; cat. no. A18817, Invitrogen), and washed again with PBST. The signal was developed with the addition of TMB reagent (following the manufacturer's recommendation; KPL; 50-76-00) for 15 min prior to the addition of an equal volume of 1 M phosphoric acid for 10 min Absorbance was measured at 450 nm using a Tekan M1000 plate reader. Values were collected and plotted using Prism Graphpad software. All assay conditions using peptides were at 1% DMSO final concentration.
Without being bound be theory, the substantial conformational change induced by dFz7-21 on hFZD7 CRD, as exemplified by the altered geometry of the lipid binding cavity, may facilitate the accommodation of two Wnt molecules simultaneously onto the hFZD7 CRD dimer (FIG. 4e-h).
Similar results were observed using Wnt3a. […] Binding of Wnt3a to FZD1 CRD, FZD2 CRD, and FZD7 CRD increased in the presence of dFz7-21 at concentrations below about 0.5 μM (FIG. 22E), with the most binding seen in the presence of 0.01 μM-0.05 μM dFz7-21. […] Fz7-21S had no effect on Binding of Wnt3a to any of the FZD CRDs tested (FIG. 22F).

[3] = tested on: mouse intestinal organoids; assay: RT-PCR of stem cell and Wnt transcripts in organoids; format: cell-based; settings: for ISC markers Lgr5 and Ascl2: FIGS. 19A, 19B
Description: Mouse organoids were established from isolated crypts collected from the entire length of the small intestine and maintained as previously described (Sato et al. (2009) Nature 459, 262-265 (2009). All mouse derived tissue was performed according to the animal use guidelines of Genentech, a Member of the Roche Group, and the Institutional Animal Care and Use Committee, conforming to California State legal and ethical practices. Mouse sex was not selected for. Organoids were passaged at least twice per week and grown using IntestiCult Organoid growth media (cat. no. 06005; StemCell Technologies). Peptides were suspended in DMSO and dissolved in media to 1% DMSO final concentration, then added to organoids to initiate drug treatment. Antibodies were added to 10 μg/ml concentration. Organoids were imaged using a Nikon Eclipse Ti scope with a Nikon Plan Fluor 10×Ph1 DLL objective using an Andor Neo camera (1×1 binning; 200 ms exposure) and acquired using NIS Elements (v 4.50 64-bit; Nikon). APC^min organoids were generated as previously described (Melo, F.d.S.e. et al. A distinct role for Lgr5+ stem cells in primary and metastatic colon cancer. Nature 543, 676-680 (2017)). For organoids treated with CHIR99021 (5 μM; Stemcell Technologies) organoids were split and treated with DMSO or CHIR99021 (5 μM) for 24 hr. prior to the addition of peptide or DMSO for 24 hr.
RNA from organoid samples was isolated using the RNeasy Micro kit (cat. no. 74004; Qiagen) according to the manufacturer's instructions. Mouse small intestine RNA was collected using the RNeasy Mini Kit (cat. no. 74104; Qiagen). qRT-PCR was performed in 10 μL reactions with 50 ng total RNA using One-step Real-time RT-PCR mastermix (cat. no. 4392938; Life Technologies) according to the manufacturer's instructions. Taqman probes from Life Technologies were used: Actb (Mm01205647_g1); Lgr5 (Mm01251801_m1); Axin2 (Mm00443610_m1); Ascl2 (Mm01268891_g1); Olfm4 (Mm01320260_m1); Muc2 (Mm01276696_m1); ACTB(Hs99999903_m1); ACTB(Mm00607939_s1); GAPDH (Mm99999915_g1); and GAPDH(Hs03929097_g1). RT-PCR reactions were run using a 7900HT Fast Real-Time PCR system (ABI) at the following thermal cycling conditions: Holding step of 30 min at 48° C., followed by a holding step of 10 min at 95° C., and 40 cycles of 10 sec at 95° C. and 1 min at 60° C. Values were normalized to actin transcript levels and then normalized to control as described in the figure legend.
Treatment with Fz7-21S had no effect. […] The effects of dFz7-21 on both ISC potential and stem cell transcripts were similar to a control anti-Lrp6 antibody (i.e., a general inhibitor of Wnt signaling).

LPSDDLEFWSHVMY [Fz7-21S, negative control]
Reduction in fold potency vs. dimer [1]: >9,000 fold
inhibition of Wnt3a signaling [1]: not found to inhibit
effect on Wnt3a binding to FZD4 CRD [2]: showed no effect
ISC markers Lgr5 and Ascl2 ([3]; 24 and 48 h treatment): had no effect

LPSDDLEFWCHVMY [dFz7-21]
improvement compared to monomeric Fz7-21 in inhibiting Wnt3a signaling ([1]; FIG. 15): ~40 fold
effect on Wnt3a binding to FZD4 CRD [2]: did not show any effect; also recorded: Neither Fz7-21 nor dFz7-21 had any effect
Muc2 ([3]; 24 and 48 h treatment): upregulated
ISC markers Lgr5 and Ascl2 ([3]; 24 and 48 h treatment): significantly down regulated
Axin2 ([3]; FIG. 19C): significantly reduced
